According to US20210038607A1, “OXADIAZOLYLTHIOPHENE DERIVATIVES USEFUL AS HISTONE DEACETYLASE INHIBITORS” (Karus Therapeutics Limited, priority 2018, published 2021):

How the values were obtained:
Recombinant human HDAC6 = biological target: T1, Recombinant human HDAC6 (Homo sapiens, UniProt Q9UBN7); assay: HDAC6 biochemical assay, AMC-labeled peptide substrate; settings: HDAC6; read-out: HDAC Isoform IC50 (nM) 6
T1 construct: full length, MW=159 kDa; GST (N); host or cells: Sf9 insect cells (baculovirus)
T1 sequence (Q9UBN7 1-1215): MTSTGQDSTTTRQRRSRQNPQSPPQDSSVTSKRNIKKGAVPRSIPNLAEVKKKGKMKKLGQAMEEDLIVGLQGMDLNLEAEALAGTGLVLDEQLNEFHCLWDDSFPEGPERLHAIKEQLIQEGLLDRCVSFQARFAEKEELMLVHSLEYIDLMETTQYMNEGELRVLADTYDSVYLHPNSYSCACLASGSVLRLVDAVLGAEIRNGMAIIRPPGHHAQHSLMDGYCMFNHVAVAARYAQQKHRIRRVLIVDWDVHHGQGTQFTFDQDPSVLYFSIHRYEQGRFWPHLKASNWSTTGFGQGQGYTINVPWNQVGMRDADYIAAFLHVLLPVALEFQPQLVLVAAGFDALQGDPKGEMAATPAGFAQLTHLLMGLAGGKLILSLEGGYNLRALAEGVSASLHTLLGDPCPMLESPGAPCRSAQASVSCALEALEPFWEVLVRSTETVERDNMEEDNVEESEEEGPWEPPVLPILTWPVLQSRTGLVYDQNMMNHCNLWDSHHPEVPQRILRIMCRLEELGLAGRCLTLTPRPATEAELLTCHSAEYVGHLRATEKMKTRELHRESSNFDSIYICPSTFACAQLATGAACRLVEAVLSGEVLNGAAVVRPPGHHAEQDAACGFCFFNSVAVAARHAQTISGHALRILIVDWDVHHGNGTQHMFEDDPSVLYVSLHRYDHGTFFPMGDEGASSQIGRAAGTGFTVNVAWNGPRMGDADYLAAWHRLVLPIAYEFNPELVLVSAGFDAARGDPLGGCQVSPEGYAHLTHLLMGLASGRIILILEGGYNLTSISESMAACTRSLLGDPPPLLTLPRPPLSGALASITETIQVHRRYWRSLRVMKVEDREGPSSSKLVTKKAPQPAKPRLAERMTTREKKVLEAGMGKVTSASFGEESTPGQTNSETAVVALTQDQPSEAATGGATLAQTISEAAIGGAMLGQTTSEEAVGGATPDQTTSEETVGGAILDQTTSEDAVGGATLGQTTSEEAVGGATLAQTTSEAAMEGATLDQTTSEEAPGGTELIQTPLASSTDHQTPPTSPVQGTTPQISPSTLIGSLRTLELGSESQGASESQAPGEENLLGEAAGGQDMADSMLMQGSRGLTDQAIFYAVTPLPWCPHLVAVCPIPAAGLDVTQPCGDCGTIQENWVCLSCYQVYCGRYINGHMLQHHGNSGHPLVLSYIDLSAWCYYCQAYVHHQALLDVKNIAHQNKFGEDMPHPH
Procedure, shortened: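 Two-step fluorogenic read-out: enzyme deacetylates 50 μM RHKK(Ac)AMC for 1 h at 30° C in pH 8.0 Tris buffer with BSA and 1% DMSO, then developer cleavage gives signal at Ex 360/Em 460. Enzyme: 0.3 ng/ul recombinant full-length human HDAC6, GST-tagged, Sf9-expressed.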

Human HDAC11 = biological target: T2, Human HDAC11 (Homo sapiens, UniProt Q96DB2); assay: HDAC11 biochemical assay, class IIa-specific substrate; settings: read-out: HDAC Isoform IC50 (nM) 11
T2 construct: Human HDAC11 (full length); His (N); host or cells: baculovirus expression system
T2 sequence (Q96DB2 1-347): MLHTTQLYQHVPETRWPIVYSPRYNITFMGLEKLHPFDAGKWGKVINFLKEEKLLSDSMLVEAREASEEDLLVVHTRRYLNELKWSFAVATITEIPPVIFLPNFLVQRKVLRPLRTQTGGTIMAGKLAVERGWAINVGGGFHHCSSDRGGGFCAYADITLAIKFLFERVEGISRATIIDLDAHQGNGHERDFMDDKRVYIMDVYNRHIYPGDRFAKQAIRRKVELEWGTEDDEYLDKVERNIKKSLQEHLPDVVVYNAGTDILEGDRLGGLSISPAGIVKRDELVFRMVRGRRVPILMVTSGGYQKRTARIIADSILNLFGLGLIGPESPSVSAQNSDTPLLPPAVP
Procedure, shortened: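 Full-length N-His human HDAC11 from baculovirus, 5 ng/μl, incubated with 50 μM Boc-Lys(trifluoroacetyl)-AMC for 30 min at 30 °C. Buffer: 50 mM Tris-HCl pH 8.0, 137 mM NaCl, 2.7 mM KCl, 1 mM MgCl2, 1 mg/mL BSA, 1% DMSO. Developer releases AMC; fluorescence read at 360/460 nm.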

## CS(=O)(=O)c1nccc(N(Cc2ccc(-c3noc(C(F)(F)F)n3)s2)c2cnccn2)n1 [Example CE, 2-Methanesulfonyl-N-(pyrazin-2-yl)-N-({5-[5-(trifluoromethyl)-1,2,4-oxadiazol-3-yl]thiophen-2-yl}methyl)pyrimidin-4-amine]
Recombinant human HDAC6
  IC50: ≤ 500 nM

## FC(F)(F)c1ccc(N(Cc2ccc(-c3noc(C(F)(F)F)n3)s2)c2cnccn2)nn1 [Example DH, N-(Pyrazin-2-yl)-6-(trifluoromethyl)-N-({5-[5-(trifluoromethyl)-1,2,4-oxadiazol-3-yl]thiophen-2-yl}methyl)pyridazin-3-amine]
Recombinant human HDAC6
  IC50: ≤ 500 nM
Human HDAC11
  IC50: > 10000 nM

## FC(F)(F)c1nc(-c2ccc(CN(c3ccncn3)c3cnccn3)s2)no1 [Example BZ, N-(Pyrazin-2-yl)-N-({5-[5-(trifluoromethyl)-1,2,4-oxadiazol-3-yl]thiophen-2-yl}methyl)pyrimidin-4-amine]
Recombinant human HDAC6
  IC50: ≤ 500 nM
Human HDAC11
  IC50: > 10000 nM

## FC(F)(F)c1nc(-c2ccc(CN(c3ccccn3)c3cnccn3)s2)no1 [Example V, N-(Pyridin-2-yl)-N-({5-[5-(trifluoromethyl)-1,2,4-oxadiazol-3-yl]thiophen-2-yl}methyl)pyrazin-2-amine]
Recombinant human HDAC6
  IC50: ≤ 500 nM
Human HDAC11
  IC50: > 10000 nM

## CS(=O)(=O)c1ccc(N(Cc2ccc(-c3noc(C(F)(F)F)n3)s2)c2cnccn2)nn1 [Example DL, 6-Methanesulfonyl-N-(pyrazin-2-yl)-N-({5-[5-(trifluoromethyl)-1,2,4-oxadiazol-3-yl]thiophen-2-yl}methyl)pyridazin-3-amine]
Recombinant human HDAC6
  IC50: ≤ 500 nM
Human HDAC11
  IC50: > 10000 nM

## FC(F)(F)c1nc(-c2ccc(CN(c3cncnc3)c3cnccn3)s2)no1 [Example CR, N-(Pyrazin-2-yl)-N-({5-[5-(trifluoromethyl)-1,2,4-oxadiazol-3-yl]thiophen-2-yl}methyl)pyrimidin-5-amine]
Recombinant human HDAC6
  IC50: ≤ 500 nM
Human HDAC11
  IC50: > 10000 nM

## FC(F)(F)c1nc(-c2ccc(CN(c3cnccn3)c3ccc(N4CCCC4)nn3)s2)no1 [Example DI, N-(Pyrazin-2-yl)-6-(pyrrolidin-1-yl)-N-({5-[5-(trifluoromethyl)-1,2,4-oxadiazol-3-yl]thiophen-2-yl}methyl)pyridazin-3-amine]
Recombinant human HDAC6
  IC50: ≤ 500 nM
Human HDAC11
  IC50: > 10000 nM
